This note sets out measurements from article PMC10352257, “In vivo effects of the alpha-synuclein misfolding inhibitor minzasolmin supports clinical development in Parkinson’s disease” (NPJ Parkinson's Disease, 2023).

In experiment [1] the test system is dopamine transporter (DAT). The experiment can be described thus: Immunolabeling of striatal dopamine transporter (DAT), 3-month study. Format: in vivo, mouse. As to conditions: for DAT immunolabeling in dorsal striatum, mean: 3 months. From the text: A transgenic mouse model of Parkinson’s disease overexpressing human wild-type ASYN under the murine Thy-1 promoter on a mixed C57Bl/6 background was used in the present studies (commonly referred to Line 61)[49]. The Line 61 transgenic mouse model of Parkinson’s disease develops extensive accumulation of ASYN in areas relevant to Parkinson’s disease[49]–[51], neurodegeneration (as evidenced by loss of tyrosine hydroxylase[52],[53] and dopamine transporter immunoreactivity[18] in the striatum), inflammation, and both motor and non-motor functional deficits. Multiple cohorts of mice were transferred from the University of California, San Diego to a Neuropore-funded AAALAC-accredited vivarium facility per a laboratory service agreement between Neuropore Therapies, Inc. and the laboratory of Dr. Eliezer Masliah under institutional animal care and use committee (IACUC) Protocol S02221. All in vivo testing was conducted by Neuropore personnel under Explora Biosciences animal care and use protocol (ACUP) number E15-016-2. Three-month-old male transgenic and age-matched non-transgenic littermate control mice were used and housed up to 5 per cage. Animals received free access to food and water prior to the experiment. The vivarium ambient room temperature was monitored daily and kept within a range of 68–72 degrees Fahrenheit. Animals were kept on a 12:12 diurnal light cycle, with lights on at 0600.
Minzasolmin was dissolved in a vehicle solution consisting of 40% Captisol (CyDex Pharmaceuticals, Inc.; Kansas, USA) in sterile water and administered at a volume of 0.1 ml/20 g of body weight. Animals received a Monday–Friday daily intraperitoneal injection of vehicle, or 1 or 5 mg/kg minzasolmin for approximately 90 days. Animals received treatment up to and including a final injection 1 h prior to euthanasia. All study solutions were blind coded and experimenters were blinded to genotype and treatment group assignments for the duration of the study, ex vivo evaluations (i.e., neuropathology sample processing and imaging, videotape scoring) and through penultimate data analyses (i.e., data quality control with documented exclusions prior to unblinding; unblinding required for a priori pairwise comparisons).
All subjects were euthanized within 1 h of the last treatment and brain and blood were collected. Tissue processing and imaging methods were conducted as described previously[17],[18],[52] and performed under a lab service agreement between UCSD and Neuropore Therapies. All samples were blind coded to genotype and treatment group throughout immune-histological processing and imaging. The right hemibrain was post-fixed in phosphate-buffered 4% paraformaldehyde (pH 7.4) at 4 °C for 48 and then serially sectioned into […] thick […] sections using a vibratome. Sections were free-floated and incubated overnight at 4 °C with primary antibodies. To confirm the specificity of primary antibodies, control experiments were performed in which sections were incubated overnight in the absence of primary antibody, pre-immune serum, or primary antibody pre-adsorbed for 48 h with 20-fold excess of the corresponding peptide. Tissue collection, processing, and imaging methods were conducted as described previously. […] Immunolabeling was evaluated as a corrected optical density across a field of view. […]

Experiment [2] concerns Line 61 transgenic mice. The experiment can be described thus: Grip strength, Line 61 transgenic mice. Format: in vivo, mouse. As to conditions: 1 and 5 mg/kg, re-test after treatment, two-way ANOVA with repeated measures. From the text: A transgenic mouse model of Parkinson’s disease overexpressing human wild-type ASYN under the murine Thy-1 promoter on a mixed C57Bl/6 background was used in the present studies (commonly referred to Line 61)[49]. The Line 61 transgenic mouse model of Parkinson’s disease develops extensive accumulation of ASYN in areas relevant to Parkinson’s disease[49]–[51], neurodegeneration (as evidenced by loss of tyrosine hydroxylase[52],[53] and dopamine transporter immunoreactivity[18] in the striatum), inflammation, and both motor and non-motor functional deficits. […] The vivarium ambient room temperature was monitored daily and kept within a range of 68–72 degrees Fahrenheit. […]
Nonetheless, a baseline measurement of grip strength is always included to confirm existing deficits in Line 61 transgenic mice and to inform pseudorandomized treatment group assignment (i.e., ensuring that each treatment group started with a similar distribution of grip strength performances). […] The dependent measure, peak strength (in grams of force), was determined per trial and as an average for each animal across trials. […]

Each structure is given as a SMILES string. “Also recorded” adds a separate entry of the source.

For the compound `CCCC[C@H](Cc1c[nH]c2ccccc12)NC(=O)c1cnc(N2CCN(C)CC2)s1` [minzasolmin], the “change in striatal DAT immunolabeling vs vehicle-treated ASYN transgenic controls” value is “statistically significant increases; also recorded: statistically significant normalizations” in experiment [1] (1 mg/kg, P < 0.05) and “statistically significant increases; also recorded: statistically significant normalizations” in experiment [1] (5 mg/kg, P < 0.0001). Also, the “DAT immunolabeling in dorsal striatum, mean” value was 255.3 in experiment [1] (Line 61 tg/1 mg/kg (first group of that name), Line 61 tg/Vehicle 211.2, Non-tg/Vehicle 292.1, adjusted P 0.0117) and 280.1 in experiment [1] (Line 61 tg/1 mg/kg as printed (second group of that name), Line 61 tg/Vehicle 211.2, adjusted P <0.0001). Moreover, the “dose effect on striatal DAT levels, 5 mg/kg compared to 1 mg/kg (towards a greater increase)” value in experiment [1] (P = 0.0754, unpaired two tailed t test) is listed as “statistical trend”. Further, in experiment [2], the “effect of chronic treatment on grip strength of Line 61 transgenic mice” value is recorded as “no statistically significant benefits”.
